In one series the target is human KHK-C (Homo sapiens (Human), UniProt P50053). Nature of the series: KHK Enzyme Activity Assay for Human KHK-C. Format: biochemical. The note with it: fructose 250 μM, ATP 150 μM; F1P production by RapidFire MS; read-out: hKHK-C IC50. The protocol: (§1) KHK Enzyme Activity Assay for Human KHK-C and Human KHK-A
(§2) The intrinsic potency for inhitibiton of KHK C or A activity may be measured using an enzymatic assay which measures the production of F1P. Compounds are prepared in DMSO and tested in a 10-point concentration curve, to create 3-fold serial dilutions of the compounds in a 96-well plate ranging from 20 μM to 1.02 nM. Enzyme is prepared in assay buffer [50 mM 4-(2-hydroxyethyl)piperazine-1-ethanesulfonic acid (HEPES), 10 mM potassium chloride, 100 mM magnesium chloride, 2 mM tris(2-carboxyethyl)phosphine (TCEP), 0.01% n-octyl glucoside] and incubated with compounds at RT for 15 min. The reaction is carried out in 100 μL volumes containing substrate concentrations of fructose (250 μM for KHK-C assay and 1.25 mM for KHK-A assay) and ATP (150 μM for both isoforms); which are further incubated at RT for 20 min. The reaction is then halted by the addition of stop buffer; consisting of 0.2% formic acid and 1 μg/ml ^13C6-fructose-6-phosphate (^13C6-F6P) internal standard. Plates are stored in −20° C. until RapidFire MS analysis.
(§3) RapidFire MS Analysis for Quantitation of F1P
(§4) An Agilent 300 RapidFire automated extraction system (Agilent, Santa Clara, CA) with three HPLC quaternary pumps is coupled to an Agilent 6495 triple quadrupole mass spectrometer (Agilent Technologies, Santa Clara, CA) equipped with an electrospray ionization (ESI) interface source. […]
(§5) Solvent A, used for sample loading and washing, is 6 mM octylamine (Acros Organics 129495000) brought to pH 5.0 using acetic acid. […] Samples are sequentially analyzed by aspirating 10 μL onto the collection loop under vacuum directly from multiwell plates. […]
(§6) The triple quadrupole mass spectrometer is equipped with an ESI source and analytes are monitored using selected reaction monitoring (SRM) in negative mode [M−H]−. F1P is monitored at m/z 259.02/96.9 and ^13C6-fructose-6-phospate is monitored at m/z 264.99/97. The area ratio values for F1P is calculated using ^13C6-fructose-6-phospate as internal standard.

Another series addresses human KHK-A (Homo sapiens (Human), UniProt P50053). Nature of the series: KHK Enzyme Activity Assay for Human KHK-A. Type of series: biochemical. The conditions noted are these: fructose 1.25 mM, ATP 150 μM; F1P production by RapidFire MS; read-out: hKHK-A IC50. The protocol: as §1, §2, §3, §4, §5, §6
The test system of series [1] is cellular KHK in HepG2 liver cells. Nature of the series: KHK Cellular Activity Assay (conversion of fructose to F1P in HepG2 liver cells). The conditions noted are these: Homo sapiens, 8.33 mM D-Fructose-13C6, 3 h at 37° C. Format: cell-based. The protocol:
An Agilent 300 RapidFire automated extraction system (Agilent, Santa Clara, CA) with three HPLC quaternary pumps is coupled to an Agilent 6495 triple quadrupole mass spectrometer (Agilent Technologies, Santa Clara, CA) equipped with an electrospray ionization (ESI) interface source. The RapidFire Mass Spec system is equipped with a reusable RapidFire C18 (type C) solid-phase extraction (SPE) cartridge (G9205A).
Solvent A, used for sample loading and washing, is 6 mM octylamine (Acros Organics 129495000) brought to pH 5.0 using acetic acid. Solvent B, used for sample elution, is 20% water in ACN containing 0.1% formic acid. Samples are sequentially analyzed by aspirating 10 μL onto the collection loop under vacuum directly from multiwell plates. The 10 μL of sample is loaded onto the C18 cartridge and washed using solvent A at a flow rate of 1.25 mL/min for 5000 ms. The retained analytes are then eluted to the mass spectrometer using solvent B at a flow rate of 1.25 mL/min for 5000 ms. The system is re-equilibrated using solvent A at a flow rate of 1.25 mL/min for 2000 ms.
as §6
KHK Cellular Activity Assay
Potency can be measured using a cellular assay for the inhibition of conversion of Fructose to F1P by cellular KHK. HepG2 liver cells are plated on 96-well cell culture plates in growth media [Dulbecco's Modified Eagle's medium (DMEM) high glucose, 10% heat-inactivated fetal bovine serum (HI FBS), 1×Penicillin/streptomycin] and allowed to attach overnight in a 37° C. incubator. The growth media is washed and replaced with assay media consisting of Gibco OptiMEM1 Reduced Serum Medium, 0.1% Casein, 8.33 mM D-Fructose-^13C6, and compound concentrations ranging from 100 μM to 0.0051 μM (10-point concentration curve). […]

Series [2] can be described thus: Pharmacokinetics in Sprague Dawley Rats. The note with it: rat; for clearance / half-life / bioavailability: Sprague-Dawley, plasma, IV 1 mg/kg; for bioavailability: fasted, PO 3 mg/kg; for oral bioavailability / total clearance: result in words. Format: in vivo. The protocol: (§7) Liquid Chromatograph with Tandem Mass Spectrometry (LC-MS/MS) Method for Pharmacokinetic Assays: Samples are extracted using a protein precipitation by adding 180 μL of MeOH:ACN (1:1, v/v) containing an internal standard to 50 μL of plasma. Samples are then diluted with MeOH:Water (1:1, v/v) to get concentrations within standard curve range. Diluted samples are analyzed by LC-MS/MS using a Sciex API 4000 triple quadrupole mass spectrometer (Applied Biosystems/MDS; Foster City, CA) equipped with a TurboIonSpray interface, and operated in positive ion mode. The analytes are chromatographically separated using a ECHELON C18 4 um 20×2.1 mm column. LC conditions are Water/1 M ammonium bicarbonate, (2000:10, v/v) (Mobile Phase A), and MeOH/1 M ammonium bicarbonate, (2000:10, v/v) (Mobile Phase B).
Pharmacokinetics in Sprague Dawley Rats
The compound is administered by a single oral (PO; 3 mg/kg; volume of 10 mL/kg) or intravenous (IV; 1 mg/kg; volume of 1 mL/kg) dose in vehicle. Blood is collected from each animal at multiple time points between 0 and up to 24 hours post-dosage. The plasma concentrations of Example 2 and Example 3 are determined by a LC-MS/MS method as described above.

The nature of a further series: Pharmacokinetics in Dogs. Format: in vivo, Beagle Dogs. The note with it: for oral bioavailability / total clearance: dog (in the rat [sic]), result in words. The protocol: as §7
The compound is administered by a single oral (PO; 2 mg/kg; volume of 2 mL/kg) or intravenous (IV; 1 mg/kg; volume of 1 mL/kg) dose in vehicle. Blood is collected from each animal at multiple time points between 0 and up to 24 hours post-dosage. The plasma concentrations of Example 2 and Example 3 are determined by a LC-MS/MS method as described above.

For series [3] the following is noted: administered for 6 weeks; subjects with non-alcoholic fatty liver disease; cited from earlier work.
Where [4] appears, read: beagle, plasma, dog, fed, IV 1 mg/kg.

human KHK-A, sequence (P50053 other isoform, or with tags, fused parts or gaps): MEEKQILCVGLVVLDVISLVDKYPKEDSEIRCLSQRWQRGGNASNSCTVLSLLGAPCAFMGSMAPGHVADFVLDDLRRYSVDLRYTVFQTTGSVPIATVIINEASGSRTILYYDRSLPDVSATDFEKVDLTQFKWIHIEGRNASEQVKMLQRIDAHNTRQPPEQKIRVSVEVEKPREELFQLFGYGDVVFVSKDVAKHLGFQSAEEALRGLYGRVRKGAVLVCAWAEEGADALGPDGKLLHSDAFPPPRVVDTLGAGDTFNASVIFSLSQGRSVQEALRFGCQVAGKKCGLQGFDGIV
human KHK-C, sequence (P50053 whole entry): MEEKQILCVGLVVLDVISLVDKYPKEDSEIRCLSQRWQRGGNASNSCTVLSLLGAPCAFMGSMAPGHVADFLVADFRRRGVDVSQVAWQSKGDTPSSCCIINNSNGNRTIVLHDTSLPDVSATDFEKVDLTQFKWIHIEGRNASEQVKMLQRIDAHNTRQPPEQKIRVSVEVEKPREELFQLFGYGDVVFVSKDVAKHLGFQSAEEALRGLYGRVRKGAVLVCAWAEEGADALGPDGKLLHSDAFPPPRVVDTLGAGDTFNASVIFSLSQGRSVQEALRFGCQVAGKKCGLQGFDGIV

For `C[C@H]1CCN1c1nc(-c2ccc(C(=O)N3C[C@@H](O)[C@@H](O)C3)cc2)cc(C(F)(F)F)n1` [Example 2, [(3R,4S)-3,4-Dihydroxypyrrolidin-1-yl]-[4-{2-[(2S)-2-methylazetidin-1-yl]-6-(trifluoromethyl)pyrimidin-4-yl}phenyl]methanone], the figures for the concentration for half-maximal inhibition (IC50) (on human KHK-C; on human KHK-A; in series [1]) were 23.1 nM, 12.7 nM and 186 nM, respectively. For the same compound, the clearance in series [2] came out at 5.57 mL/min/kg; in the series “Pharmacokinetics in Dogs” (setting [4]), 2.15 mL/min/kg. Besides, the half-life is 6.42 h in series [2] and 11.3 h in the series “Pharmacokinetics in Dogs” (setting [4]). The bioavailability in series [2] worked out at 65%. The oral bioavailability result (in series [2]; in the series “Pharmacokinetics in Dogs”) was “high” each time. Moreover, the total clearance result (in series [2]; in “Pharmacokinetics in Dogs”) was “low” each time.
For the compound `C[C@H]1CCN1c1nc(-c2ccc(C(=O)O)cc2)cc(C(F)(F)F)n1` [Example 1, 4-{2-[(2S)-2-Methylazetidin-1-yl]-6-(trifluoromethyl)pyrimidin-4-yl}benzoic acid], the IC50 on human KHK-C was found to be 22.6 nM; on human KHK-A, 21.5 nM; in series [1], 911 nM.
Turning to `C[C@H]1CCN1c1nc(-c2ccc(C(=O)NC(CO)(CO)CO)cc2)cc(C(F)(F)F)n1` [Example 3, N-[2-Hydroxy-1,1-bis(hydroxymethyl)ethyl]-4-{2-[(2S)-2-methylazetidin-1-yl]-6-(trifluoromethyl)pyrimidin-4-yl}benzamide], the values for the IC50 (at human KHK-C; on human KHK-A; in series [1]) were 29.7 nM, 23.4 nM and 82.1 nM, respectively. In addition, the clearance worked out at 12.7 mL/min/kg in series [2] and 4.77 mL/min/kg in the series “Pharmacokinetics in Dogs” (setting [4]). Also, the half-life is 2.95 h in series [2]; 5.07 h in the series “Pharmacokinetics in Dogs” (setting [4]); 4.52 h in the series “Pharmacokinetics in Dogs” (beagle, plasma, dog, fed, PO 2 mg/kg). Further, the bioavailability in series [2] is 69%; in “Pharmacokinetics in Dogs” (beagle, plasma, dog, fed, PO 2 mg/kg, IV 1 mg/kg), ~96%. For the same compound, the oral bioavailability result (in series [2]; in “Pharmacokinetics in Dogs”) was “high” each time. The total clearance result (in series [2]; in “Pharmacokinetics in Dogs”) was “low” each time.
With `C[C@H]1CCN1c1nc(N2C[C@@H]3[C@@H](CC(=O)O)[C@@H]3C2)cc(C(F)(F)F)n1` [PF-06835919], the “whole liver fat as measured by magnetic resonance imaging-proton density fat fraction” value in series [3] was “reduces whole liver fat”.

A word on the IC50: it is the concentration at which inhibition is half-maximal. As a reminder, the clearance is the rate of elimination divided by the concentration. Read a high clearance as a high capacity for elimination. Usually half-life stands for the time needed for the level to fall by half in the phase considered. The bioavailability is the share of a dose that reaches the circulation, judged against a reference dose that is usually intravenous. Higher therefore signals good availability.

Values taken from US12479829B2, “2-[2-methylazetidin-1-yl]-4-phenyl-6-(trifluoromethyl)-pyrimidine compounds” (Eli Lilly and Company, priority 2020, dated 2025).
